Test results published in PMC4912613, “A broad analysis of resistance development in the malaria parasite” (Nature Communications, 2016).

Key:
[1] = system: PfCRT-Q352R (parent Dd2); assay: Cross-resistance EC50 assay, PfCRT-Q352R; format: cell-based; details: Plasmodium falciparum, DD2, 72 h, read-out: PfCRT:Q352R (Dd2 Parent) Average EC50
From the text: (§1) To evaluate potential overlapping activity against known antimalarial drug targets, we performed dose-response studies with each compound against our assembled set of drug-resistant lines and their corresponding parents, in an asexual blood stage proliferation assay (Table 1). Comparisons were made to the drug-sensitive strain 3D7 when a parent was unavailable (TM90C2A, W2 and Dd2). As laboratories conducted EC50 assays with different strains and protocols, all comparisons were made between assays from the same laboratory and under the same assay conditions. Compounds displaying >5-fold EC50 shifts relative to the parent or sensitive strain were flagged as having potentially non-novel targets. Average fold shifts per strain ranged from 0.82 to 2.34, with a median of 1.23 indicating there was not common resistance to any one resistant clone. No resistance patterns were observed when classifying the compounds based on chemical structure, but this was not surprising given the diversity of compounds chosen. On the other hand, given that these confirmed compounds were derived from larger unconfirmed hit lists to which some filtration criteria may have been applied (for example, elimination of obvious dihydrofolate reductase inhibitors[32]), some[10][11][12][13] pre-existing bias may exist in the set. […]
(§2) Alternatively, a SYBR Green-based proliferation approach was used for the 72-h assay, as previously described. Briefly, a culture of either synchronized or asynchronous parasitized RBCs (0.3% parasitemia and 4% haematocrit) in screening medium (identical to supplemented medium above except no serum was added) was exposed to serial drug dilutions. Plates were incubated at 37 °C and gassed with 93% N2, 4% CO2 and 3% O2 for 72 h. Following incubation, 10 × SYBR Green I (Invitrogen; supplied in 10,000 × concentration) in lysis buffer ([…], 5 mM EDTA, 0.16% Saponin wt per vol and 1.6% Triton X vol per vol) was added to the wells and the plates were incubated overnight at room temperature before plate reading. EC50 assays were repeated three times, taking the average EC50 value from each assay set, and removing any outliers using a single iteration of Grubbs' test, eliminating values with z-scores above the critical z-value (α=0.05). The raw EC50 values for synchronized parasites assayed in a 384-well format are listed in Supplementary Data 4. The raw EC50 values for asynchronous parasites assayed in a 96 or 1536-well format are listed in Supplementary Data 5.
(§3) EC50 values for each strain were compared with those of the corresponding parent strain to determine fold-shift changes and identify resistance. To minimize the cause variance between assays, all comparisons were conducted between strains assayed under identical conditions. A one-way ANOVA followed by a Dunnet's post-test was conducted in GraphPad Prism to identify significant changes between the parent and resistant strain.

[2] = system: P. falciparum 3D7, Dd2, Dd2Δexo; assay: In vitro evolution of compound-resistant lines (selection); format: cell-based, Plasmodium falciparum; details: for Time Length to Obtain Mutants: in vitro selection; for # of Resistant Strains Generated: resistant cultures out of three independent cultures; for EC50 fold shifts observed: selected parasites vs selection parent
From the text: While we found an overall lack of pre-existing resistance, analysing the onset of resistance was critical, as compounds resulting in rapid resistance are not ideal for clinical development. We therefore sought to create drug-resistant parasites using a variety of different selection methods. We implemented either a high-dose method or a ramp-up/pulse method for our in vitro selections. Two of the 50 compounds—MMV028895 and MMV665824—were removed from the selection study during experimentation. […] Out of the remaining 48 compounds, resistant parasites were obtained for 23 (Supplementary Data 1). As each selection was performed in triplicate with three independent cultures, we succeeded in generating a total of 66 resistant cultures. Parasites resistant to MMV026596 were not obtained despite 100 days of selection, but the cultures acquired hypersensitivity to mefloquine with a 10-fold reduction in EC50 compared with its parental line, 3D7. For the remaining 24 compounds, acquisition of resistant parasites was unsuccessful despite numerous attempts over an extensive period of time.
Based on the compound speed of action and lab specialty, selections were conducted using a high-pressure intermittent selection method, a step-wise selection method, or a constant selection method. For high-pressure selections, ∼1–2 × 10^9 parasites were treated at a concentration of 3–10 × EC50 until parasites could not be seen by microscopy (4–10 days). Following treatment, compound pressure was removed and cultures were allowed to recover. Once healthy parasites were seen and parasitemia reached ∼2%, compound pressure was reinstated. For step-wise selections, ∼1 × 10^8 parasites were treated at a starting concentration resulting in a reduced growth rate of 50%. Cultures were examined daily by microscopy, increasing compound concentration in increments of 5–10% as needed to maintain a 50% reduced growth rate. Selections were carried out until cultures achieved a reproducible EC50 fold shift of >3 × . Finally, constant selections were conducted in a similar manner to the high-pressure intermittent method with the exception that compound pressure was never removed. Following successful selection, cultures were cloned out using a limiting dilution method as previously described. Selections were terminated after 200 days if resistance could not be obtained.

[3] = system: GNF156R (PfCARL L830V, S1076I and M81I, parent Dd2); assay: Cross-resistance EC50 assay, GNF156R; format: cell-based; details: Plasmodium falciparum, SYBR green 72 hour assay, asynchronized parasites, 96-well or 1536-well format
From the text: as §1, §2, §3

[4] = system: DHODH (E182D, parent 3D7); assay: Cross-resistance EC50 assay, DHODH; format: cell-based; details: Plasmodium falciparum; SYBR green 72 hour assay; synchronized parasites; 384-well format; strain DHODH (3D7 parent)
From the text: as §1, §2, §3

| Compound | EC50 [1] [nM] | Time Length to Obtain Mutants [2] | # of Resistant Strains Generated [2] | EC50 fold shifts observed [2] | EC50 [3] [µM] | EC50 [4] [nM] |
| --- | --- | --- | --- | --- | --- | --- |
| O=C(NCC(CCCN1CCC(c2c[nH]c3ccccc23)CC1)c1ccccc1)Nc1ccc(Cl)c(Cl)c1 (stereo not drawn) [MMV029272] | 267 | LONG (> 125 days) | 3/3 | 6-9x | 0.332 | 148 |
| COc1cc(-c2nc(-c3ccccc3)c(-c3ccccc3)[nH]2)ccc1OCCN(C)C [MMV027496] | 211 | LONG (> 125 days) | 0/3 | no shift | 1.8 | 128 |
| CCCCCCCN(Cc1ccc(OC(C)(C)C(=O)OCC)cc1)C(=O)Nc1ccc(Cl)cc1OCC [MMV021735] | 259 | LONG (> 125 days) | 0/3 | no shift | 1.08 | 460 |
